Like-named read-outs stand apart in the source and are kept apart here.
Assays:
Type in all cases: binding, sheep
Details in all cases: Cross-reactants at 100 ng/ml, 1000ng/ml, single level of cross reactants
Antibody to Immunogen V = test system: Antibody to Immunogen V
Protocol: (§1) The wells of an enhanced binding 96 well polystyrene microtiter plate were coated with IgG fraction of antiserum raised to Immunogen VI, diluted in 10mM Tris, pH8.5 (125µl/well). The appropriate antibody coating dilution was determined using standard ELISA checkerboard techniques. The plate was incubated overnight at 4°C, washed 4 times over 10 minutes with Tris buffered saline containing Tween 20 (TBST) and tapped dry. Standard solutions of RCS-4 were prepared in TBST at 0, 0.3125, 0.625, 1.25, 2.5, 5, 10 and 20ng/ml, and 50µl of each was added to the appropriate wells (see figure 1). 75µl of conjugate (appropriate hapten-HRP) diluted in Tris buffer (pH 7.2) containing EDTA, D-mannitol, sucrose, thimerosal and BSA, was added to each of the wells. The appropriate dilution of conjugate was also determined using standard ELISA checkerboard techniques. The plate was incubated at 25°C for 1 hour. Excess unbound conjugate was removed by washing 6 times over a 10 minute period with TBST. 125µl oftetramethylbenzidine (TMB) substrate solution was added to each well of the plate that was then incubated for 20 minutes in the dark at room temperature. The reaction was terminated by addition of 125µl 0.2M H2SO4 to each well. The absorbance was then measured at 450nm using a microtiter plate reader. The data are inputted to a computer program called 'KC Junior'. It is a 4 parameter fit curve and allow the calculatation of concentrations between the standard runs. This program is used to calculate the IC50s by dividing the 0ng/ml OD value by 2 and obtaining the concentration value from the curve for this OD.
In a similar manner to that described above, the wells of a 96-well microtiter plate were coated with the IgG fraction of the antiserum raised to Immunogens IV, V, VII or VIII. Standard solutions (RCS-8 for Immunogen V) were prepared in TBST at 0, 1.25, 2.5, 5, 10, 20, 40 and 80ng/ml and conjugate was employed as detection reagent.
(§2) The data set our in Tables 3 and 4 are generated using antibodies raised against the indicated Immunogens in a competitive binding assay with the indicated tracers, using the indicated standards: Table 2
(§3) In order to determine the specificity of the competitive ELISAs, standard solutions of a range of structurally similar synthetic cannabinoids and their metabolites were prepared in TBST. Using the calibration curves generated and employing a single level of cross reactants, these were used to determine the cross-reactivity of each immunoassay with these substances. Table 4: Cross reactivity of the competitive ELISAs for synthetic cannabinoids and their metabolites

Antibody to Immunogen VI = test system: Antibody to Immunogen VI
Protocol: as §1, §2, §3

[1] = test system: Antibody to Immunogen III
Protocol: as §1
In a similar manner to that described above, the wells of a 96-well microtiter plate were coated with the IgG fraction of the antiserum raised to Immunogens I, II or III. Standard solutions (JWH-250 for Immunogen III) were applied at 0, 0.625, 1.25, 2.5, 5, 10, 20 and 40ng/ml and conjugate was employed as detection reagent.
as §2, §3

[2] = listed as JWH-164 (JWH-081 7-methoxynaphthyl isomer)

| Structure (SMILES) | %B/B0 (Antibody to Immunogen V) [%] | %B/B0 (Antibody to Immunogen VI) [%] | %B/B0 [1] [%] | %B/B0 (Antibody to Immunogen V; [2]) [%] | %B/B0 (Antibody to Immunogen VI; [2]) [%] | %B/B0 [1, 2] [%] |
| --- | --- | --- | --- | --- | --- | --- |
| O=C(c1cccc2ccccc12)c1cn(CCCC(O)CF)c2ccccc12 (stereo not drawn) [AM-2201 N-(4-hydroxypentyl) metabolite] | 50.40 | 77.68 | 68.76 | – | – | – |
| O=C(c1cccc2ccccc12)c1cn(CCCCCO)c2ccccc12 [JWH-018 N-(5-hydroxypentyl) metabo lite] | 70.25 | 61.67 | 89.74 | – | – | – |
| CCC(C)Cn1cc(C(=O)c2cccc3ccccc23)c2ccccc21 (single isomer, unassigned) [JWH-018 N-(2-methylbutyl) isomer (JWH-073 2-methylbutyl homologue)] | 69.13 | 80.10 | 92.91 | – | – | – |
| O=C(O)CCCn1cc(C(=O)c2cccc3ccccc23)c2ccccc21 [JWH-073 N-butanoic acid metabolite] | 70.75 | 76.27 | 97.45 | – | – | – |
| CCCCn1cc(C(=O)c2ccc(C)c3ccccc23)c2ccccc21 [JWH-073 4-methylnaphthyl analogue] | 65.84 | 70.97 | 78.03 | – | – | – |
| CCCCCn1cc(C(=O)c2c(C)ccc3ccccc23)c2ccccc21 [JWH 122 2-methylnaphthyl isomer] | 83.38 | 90.59 | 80.25 | – | – | – |
| CCCCCn1cc(C(=O)c2cccc3ccccc23)c2ccc(O)cc21 | 75.65 | 91.26 | 92.91 | – | – | – |
| COc1ccc(C(=O)c2c(C)n(CCN3CCOCC3)c3cc(I)ccc23)cc1 [AM-630 (other name 6-Iodopravadoline), 6-Iodopravadoline] | 71.78 | 39.25 | 91.34 | – | – | – |
| CCCCCn1ccc(C(=O)c2cccc3ccccc23)c1 [JWH-030] | 77.27 | 86.70 | 95.34 | – | – | – |
| Cc1ccc(C(=O)c2cn(CCCCCO)c3ccccc23)c2ccccc12 [JWH-122 N-(5-hydroxypentyl) metabo lite] | 68.77 | 71.84 | 81.72 | – | – | – |
| CN1CCCCC1Cn1cc(C(=O)c2cc([N+](=O)[O-])ccc2I)c2ccccc21 (stereo not drawn) [AM-1241] | 71.68 | 99.43 | 102.11 | – | – | – |
| COc1ccc(C(=O)c2cn(CCCCCO)c3ccccc23)c2ccccc12 [JWH-081 N-(5-hydroxypentyl) metabolite] | 72.78 | 69.47 | 76.44 | – | – | – |
| O=C(c1cccc2ccccc12)c1c[nH]c2ccccc12 [N-desalkyl JWH-018: LK1012 10CD194] | 81.80 | 87.49 | 99.73 | – | – | – |
| CCCCCn1cc(C(=O)Cc2ccccc2OC)c2cc(O)ccc21 [JWH 250 5-hydroxyindole metabolite] | 37.39 | 91.28 | 65.83 | – | – | – |
| COc1ccc(C(=O)c2cn(CCCCCO)c3ccccc23)cc1 [RCS-4 N-(5-hydroxypentyl) metabolite] | 63.69 | 3.76 | 72.34 | – | – | – |
| CCCCCn1cc(C(=O)Cc2ccccc2Cl)c2ccccc21 [JWH-203] | 15.33 | 83.09 | 18.15 | – | – | – |
| CCCCCn1cc(C(=O)c2cccc3ccc(OC)cc23)c2ccccc21 [JWH-081 7-methoxynaphthyl isomer (JWH-164)] | 87.25 | 92.27 | 75.18 | 82.81 | 89.29 | 72.63 |

| Structure (SMILES) | %B/B0 (Antibody to Immunogen V) [%] | %B/B0 (Antibody to Immunogen VI) [%] | %B/B0 [1] [%] | %B/B0 (Antibody to Immunogen V; [2]) [%] | %B/B0 (Antibody to Immunogen VI; [2]) [%] | %B/B0 [1, 2] [%] |
| --- | --- | --- | --- | --- | --- | --- |
| O=C(c1ccc2ccccc2c1)c1cn(CCN2CCOCC2)c2ccccc12 [JWH-200 2'-naphthyl isomer] | 75.36 | 20.66 | 99.13 | – | – | – |
| CCCCCCC(C)(C)c1cc(OC)c([C@@H]2C=C(CO)[C@@H]3C[C@H]2C3(C)C)c(OC)c1 [HU-308] | 71.33 | 97.34 | 96.26 | – | – | – |
| CCCCCCn1cc(C(=O)c2cccc3ccccc23)c2ccccc21 [JWH-019] | 70.25 | 78.02 | 88.06 | – | – | – |
| CCCCCn1cc(C(=O)c2cccc3ccccc23)c2cccc(O)c21 | 80.99 | 91.71 | 97.89 | – | – | – |
| CC(C)(C)Cn1cc(C(=O)c2cccc3ccccc23)c2ccccc21 [JWH-018 N-(2,2-dimethylpropyl) isomer] | 67.14 | 78.92 | 95.58 | – | – | – |
| C=CCCCn1cc(C(=O)c2cccc3ccccc23)c2ccccc21 [JWH-022] | 61.86 | 75.42 | 76.82 | – | – | – |
| CCCCCCC(C)(C)c1ccc([C@@H]2C[C@H](O)CC[C@H]2CCCO)c(O)c1 (racemic) [((+-)-CP 55,940)] | 80.97 | 98.86 | 93.49 | – | – | – |
| CCCCn1cc(C(=O)c2c(C)ccc3ccccc23)c2ccccc21 [JWH 073 2-methylnaphthyl analog] | 77.45 | 86.98 | 86.14 | – | – | – |
| CCCCCn1cc(C(=O)c2ccc(CCC)c3ccccc23)c2ccccc21 [JWH-182] | 82.38 | 85.69 | 76.14 | – | – | – |
| CCCCn1cc(C(=O)c2cccc3ccccc23)c2ccccc21 [JWH-073] | 66.65 | 74.80 | 81.25 | – | – | – |
| CCCCCCCn1cc(C(=O)c2cccc3ccccc23)c2ccccc21 [JWH-020] | 71.43 | 82.41 | 93.85 | – | – | – |
| CCCCCCC(C)(C)C1=CC(=O)C(C2CCCC(O)C2)=CC1=O (stereo not drawn) [CP-47,497-para-quinone analogue] | 72.98 | 94.38 | 96.58 | – | – | – |
| CCCCn1cc(C(=O)c2ccc(OC)cc2)c2ccccc21 | 76.87 | 4.40 | 62.80 | – | – | – |
| CCCCCn1c(O)c(C(=O)c2cccc3ccccc23)c2ccccc21 | 98.82 | 101.92 | 97.61 | – | – | – |
| CCCCCn1c(C)c(C(=O)c2ccc(OC)c3ccccc23)c2ccccc21 [JWH-098] | 81.09 | 78.96 | 74.71 | – | – | – |
| O=C(c1cccc2ccccc12)c1cn(CCN2CCOCC2)c2cc(O)ccc12 [JWH-200 6-hydroxyindole metabolite] | 69.91 | 88.68 | 95.45 | – | – | – |
| CCCCCCC(C)(C)c1ccc([C@H]2CCC[C@@H](O)C2)c(O)c1 (racemic) [CP-49,497-C7 ((+-) CP 47,497)] | 69.53 | 95.90 | 96.91 | – | – | – |

— patent publication EP2698384A1, “Detection of synthetic cannabinoids” (priority 2012, dated 2014)
